The numbers were not newly measured in patent US20260284157A1, “POWDER COMPOSITION COMPRISING A HAEMOSTATIC AGENT” (WOMED, priority 2023, published 2026), which cites them from elsewhere.

The conditions of this data set: certificate of analysis of the product (Sigma Aldrich).

Regarding Thrombin, the “activity of the protein” value is listed as greater than 400 NIH units/mg protein.
